Experimental data reported in patent US20260306527A1, “PRMT INHIBITOR COMPOUNDS AND THE USES THEREOF” (Purdue Research Foundation, priority 2023, published 2026).

What was measured:
Type in all cases: biochemical
PRMT4 [1] = molecular target: T1, PRMT4 (Homo sapiens, UniProt Q86X55); assay: radioactive assay (Reaction Biology Corp.), inhibition of PRMT4
T1 sequence (Q86X55 1-608): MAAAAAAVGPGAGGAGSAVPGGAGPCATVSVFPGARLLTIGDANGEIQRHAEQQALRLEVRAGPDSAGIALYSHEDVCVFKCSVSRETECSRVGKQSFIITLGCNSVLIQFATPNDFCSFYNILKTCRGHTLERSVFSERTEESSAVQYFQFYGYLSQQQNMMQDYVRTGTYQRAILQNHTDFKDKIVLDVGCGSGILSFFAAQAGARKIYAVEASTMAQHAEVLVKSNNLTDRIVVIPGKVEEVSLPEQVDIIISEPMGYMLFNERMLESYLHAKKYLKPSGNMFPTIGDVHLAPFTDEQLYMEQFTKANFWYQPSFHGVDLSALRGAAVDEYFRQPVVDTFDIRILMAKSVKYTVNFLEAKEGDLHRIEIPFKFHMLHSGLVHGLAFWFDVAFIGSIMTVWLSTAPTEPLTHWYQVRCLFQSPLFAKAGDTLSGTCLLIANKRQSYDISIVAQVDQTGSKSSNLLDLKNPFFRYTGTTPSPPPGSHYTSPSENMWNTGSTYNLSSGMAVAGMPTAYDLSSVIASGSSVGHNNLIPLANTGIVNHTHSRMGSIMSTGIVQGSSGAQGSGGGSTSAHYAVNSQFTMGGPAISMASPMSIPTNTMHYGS
Experimental: (§1) Next, the inhibition activity of the library was investigated for five PRMT members from type I PRMTs.
(§2) The PRMT 4, 6 and 8 methylation assays were performed by Reaction Biology corp.

PRMT4 [2] = assay: as above
Experimental: as §1, §2

PRMT6 = PRMT6 (Homo sapiens, UniProt Q96LA8); assay: radioactive assay (Reaction Biology Corp.), inhibition of PRMT6
Experimental: as §1, §2

PRMT8 = PRMT8 (Homo sapiens, UniProt Q9NR22); assay: radioactive assay (Reaction Biology Corp.), inhibition of PRMT8
Experimental: as §1, §2

PRMT6, sequence (Q96LA8 whole entry, species assumed): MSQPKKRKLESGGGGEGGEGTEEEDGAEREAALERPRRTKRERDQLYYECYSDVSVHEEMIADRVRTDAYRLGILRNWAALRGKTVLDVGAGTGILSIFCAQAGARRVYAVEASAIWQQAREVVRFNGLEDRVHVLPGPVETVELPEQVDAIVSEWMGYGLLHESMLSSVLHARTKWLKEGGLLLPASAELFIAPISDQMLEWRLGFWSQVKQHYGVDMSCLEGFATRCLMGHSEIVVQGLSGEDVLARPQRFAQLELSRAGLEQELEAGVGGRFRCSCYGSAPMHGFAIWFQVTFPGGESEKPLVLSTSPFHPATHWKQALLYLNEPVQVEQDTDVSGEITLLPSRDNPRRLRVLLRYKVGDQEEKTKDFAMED
PRMT8, sequence (Q9NR22 whole entry, species assumed): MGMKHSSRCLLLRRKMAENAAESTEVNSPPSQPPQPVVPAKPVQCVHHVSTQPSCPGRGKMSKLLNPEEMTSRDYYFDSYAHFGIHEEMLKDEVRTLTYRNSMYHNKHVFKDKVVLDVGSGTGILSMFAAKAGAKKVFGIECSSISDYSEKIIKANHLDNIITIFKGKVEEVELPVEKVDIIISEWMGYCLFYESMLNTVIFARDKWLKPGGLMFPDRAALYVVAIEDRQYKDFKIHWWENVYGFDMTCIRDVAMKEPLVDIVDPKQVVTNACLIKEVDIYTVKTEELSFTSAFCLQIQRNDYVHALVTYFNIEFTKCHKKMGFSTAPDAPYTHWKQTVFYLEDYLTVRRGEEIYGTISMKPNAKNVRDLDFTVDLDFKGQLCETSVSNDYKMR

Nc1ncnc2c1ncn2[C@@H]1O[C@H](CSCCNC(=O)NCc2ccccc2)[C@@H](O)[C@H]1O [Compound 7a, 1-(2-((((2S,3S,4R,5R)-5-(6-amino-9H-purin-9-yl)-3,4-dihydroxytetrahydrofuran-2-yl)methyl)thio)ethyl)-3-benzylurea]
inhibition at 10 µM (PRMT4 [1]): 97% | IC50 (PRMT4 [2]): 140 ± 13 nM | inhibition at 10 µM (PRMT6): 89% | inhibition at 10 µM (PRMT8): 12%
